Laboratory results as given in US9632088B2, “Methods and compositions for gamma-secretase assay” (MEMORIAL SLOAN-KETTERING CANCER CENTER, priority 2010, dated 2017).

Tests used:
[1] = biological target: T1, γ-secretase (Homo sapiens, UniProt P49768); experiment: Cell-based Notch cleavage assay, immunostaining with SM320, HEK293 cells transfected with N1-ΔE; conditions: 1 μM inhibitor, 48 hours
T1 construct: endogenous in cells; host or cells: HEK293 cells transiently transfected with myc-tagged N1-ΔE (substrate only)
Description: HEK293 cells were seeded in a 4-well chamber slide (Lab-tek) and transfected with N1-ΔE as in the preceding paragraph, using Fugene 6 transfection reagents (Roche Applied Science, Mannheim, Germany). Transfected cells were then treated with either DMSO at a 1% final concentration or 1 μM Compound E.
After 48 hours of treatment, the cells were washed with PBS, fixed with cold methanol and permeabilized with 0.25% Tween-20. SM320 and anti-myc antibodies were added to detect NICD and full length N1-ΔE, respectively. Alexa Fluor-488 (Invitrogen, San Diego, Calif.) conjugated anti-rabbit and Alexa Fluor-594 (Invitrogen) conjugated anti-mouse antibodies were used as corresponding secondary antibodies. 4′,6-diamidino-2-phenylindole (DAPI) was used to stain cell nuclei. Finally, fluorescent images were captured with a Leica TCS Sp2 AOBS laser scanning confocal microscope (Memorial Sloan-Kettering Cancer Center Molecular Cytology Core Facility). Alternatively, REK 293 cells overexpressing N1-ΔE were treated with DMSO or Compound E, and were then collected through centrifugation and embedded in paraffin. The cell pellets were sliced and mounted on glass slides. […]
SM320 was further characterized using immunostaining analysis. […] Using confocal microscopy, it was shown that N1-ΔE protein, as detected by anti-myc antibody, is expressed in cells transfected with the construct (FIG. 6B, panel 2). […]

[2] = biological target: T2, M146L PS1 γ-secretase (Homo sapiens, UniProt P49768, M146L); experiment: In vitro N1-Sb1 γ-secretase assay, membrane of N2a cells expressing M146L PS1; assay type: biochemical, murine; conditions: M146L PS1; read-out: IC50 of γ-secretase inhibition (N1-Sb1 cleavage)
T2 construct: total membrane
Description: HeLa membrane fraction was isolated from HeLa-S3 cells (National Cell Culture Center). The cell pellet was resuspended in Buffer A (50 mM MES, 150 mM KCl, 5 mM CaCl2, 5 mM MgCl2) and lysed by passage through a French Press. N2a cells (murine neuroblastoma cells) over-expressing wild-type PS1, or mutants M146L or E280A, were obtained from Dr. Sangram Sisodia (University of Chicago, Chicago, Ill.). These cells were maintained in 50% Dulbecco's modified Eagle's medium high glucose, 50% Opti-Mem Reduced Serum Media, and 10% fetal calf serum. Cultured cells were pelleted by centrifugation and resuspended in hypotonic buffer (40 mM Tris, pH 7.4, 10 mM NaCl, 1 mM EDTA, and 0.5 mM DTT) for 20 minutes before being lysed with a dounce homogenizer. Nuclear debris from the HeLa and N2a cells were pelleted at 3000 rpm for 30 minutes. The resulting supernatants were ultracentrifuged at 100,000×g for 1 hour. The pellet that contained total cell membrane was resuspended in Buffer A. Mouse brains overexpressing knock-in wild type or M146V PS1 (gift from Dr. Hui Zheng, Amylin Pharmaceuticals, San Diego, Calif.) were homogenized with dounce homogenizer. The cell lysate was centrifuged at 3000 rpm for 30 minutes. The supernatants were ultracentrifuged at 100,000×g for 1 hour. Protein concentration was determined with the DC Protein Assay Kit according to the manufacturer's instructions (Bio-Rad, Hercules, Calif.).
An in vitro γ-secretase assay using a novel recombinant APP-derived substrate (termed “Sb4”) is disclosed in co-pending application U.S. Ser. No. 12/776,141. In the present assay based on a Notch-derived substrate, N1-Sb1 was incubated with the cell membrane fraction, prepared as described above, in the presence of 0.25% CHAPSO and 1×PIPES buffer (50 mM PIPES, pH 7.0, 150 mM KCl, 5 mM CaCl2, 5 mM MgCl2. The reaction was incubated at 37° C. for 2 hours. The Perkin Elmer AlphaScreen™ detection system was employed to assay for Notch cleavage. AlphaScreen (PerkinElmer Life and Analytical Sciences, Shelton, Conn.) is a bead based non-radioactive Amplified Luminescent Proximity Homogeneous Assay (ALPHA). When a biological interaction brings the beads together, a cascade of chemical reactions acts to produce a greatly amplified signal. Specifically, upon laser excitation, a photosensitizer in the “Donor” bead converts ambient (triplet) oxygen to the more reactive singlet state. The singlet state oxygen molecules diffuse into the solvent, and may react with a thioxene derivative in the Acceptor bead if nearby, generating chemiluminescence at 370 nm that further activates fluorophores contained in the same bead. The fluorophores subsequently emit light at 520-620 nm. In the absence of a specific biological interaction, the singlet state oxygen molecules produced by the donor bead go undetected without the close proximity of the acceptor bead. As a result no fluorescence signal at 520-620 nm is produced.
In the present system, antibody SM320, Protein A-conjugated acceptor beads, and Streptavidin-conjugated donor beads (PerkinElmer) were added to the reaction at a final concentration of 0.2 μg/ml, 2.5 μg/ml and 5 μg/ml, respectively (diagrammed in FIG. 5A). The reaction was incubated in the dark at room-temperature for 4 hours. The ALPHA signal was detected using the Envision plate reader (Perkin Elmer). The reactions were excited at 680 nm and signal was detected at 615 nm.
The effects of PS1 FAD mutations on Notch cleavage were determined using the new γ-secretase assay described in Example 2. The activities of two PS1 FAD mutations—PS1 M146L and E280A were compared against wild-type PS1 (WT), which has been previously studied (25). Total membrane was isolated from N2a cells that stably express WT, M146L, or E280A mutants. N1-Sb1 was incubated with these membranes and the resulting cN1-Sb1 was detected with SM320. […] The M146L and E280A mutants had 40% and 14% activity remaining, respectively, compared to the activity of the wild type (FIG. 7A). […]

| SMILES | detection of NICD by SM320 immunostaining [1] | IC50 [2] [nM] |
| --- | --- | --- |
| CC(NC(=O)Cc1cc(F)cc(F)c1)C(=O)NC1N=C(c2ccccc2)c2ccccc2N(C)C1=O (stereo not shown) [Compound E] | not in cells treated with Compound E | 0.76 |
| CC(C)C[C@H](NC(=O)[C@H](Cc1ccccc1)C[C@@H](O)[C@H](Cc1ccccc1)NC(=O)OC(C)(C)C)C(=O)N[C@@H](Cc1ccccc1)C(N)=O [L458] | No spots of any color are observed | 0.45 |
